{"source": "ChEMBL document CHEMBL5532659", "about": "“Design, Synthesis, and Evaluation of Cephamycin-Based Antisporulation Agents targeting Clostridioides difficile” (J Med Chem, 2024)", "key": {"[1]": {"tested_on": "Staphylococcus aureus", "test": "Antimicrobial activity against methicillin-resistant Staphylococcus aureus ATCC 43300 assessed as microbial growth inhibition incubated for 18 hrs", "type": "functional"}, "[2]": {"tested_on": "Cryptococcus neoformans", "test": "Antimicrobial activity against Cryptococcus neoformans ATCC 208821 assessed as microbial growth inhibition incubated for 36 hrs by resazurin dye based assay", "type": "functional"}, "[3]": {"tested_on": "Klebsiella pneumoniae", "test": "Antimicrobial activity against multidrug-resistant Klebsiella pneumoniae ATCC 700603 assessed as microbial growth inhibition incubated for 18 hrs", "type": "functional"}, "[4]": {"tested_on": "Erythrocyte", "test": "Hemolytic activity in human RBC incubated for 70 mins by absorbance based assay", "type": "toxicity, cell-based", "settings": "1.167 h"}, "[5]": {"test": "Inhibition of Clostridium difficile SpoVD using Boc-FL as substrate preincubated for 30 mins followed by substrate addition measured after 30 mins by FP assay", "design": "species or system Clostridioides difficile"}, "[6]": {"tested_on": "Candida albicans", "test": "Antimicrobial activity against Candida albicans ATCC 90028 assessed as microbial growth inhibition incubated for 36 hrs by resazurin dye based assay", "type": "functional"}, "[7]": {"tested_on": "Escherichia coli", "test": "Antimicrobial activity against Escherichia coli ATCC 25922 assessed as microbial growth inhibition incubated for 18 hrs", "type": "functional"}, "[8]": {"tested_on": "Acinetobacter baumannii", "test": "Antimicrobial activity against Acinetobacter baumannii ATCC 19603 assessed as microbial growth inhibition incubated for 18 hrs", "type": "functional"}, "[9]": {"tested_on": "Clostridioides difficile", "test": "Anti-sporulation activity against Clostridium difficile M7404 assessed as fold reduction in spore count incubated overnight by absorbance based assay relative to control", "type": "functional"}, "[10]": {"test": "Cytotoxicity against HEK293 cells incubated for 20 hrs by resazurin dye based assay", "type": "toxicity, cell-based", "settings": "human"}, "[11]": {"tested_on": "Clostridioides difficile", "test": "Antimicrobial activity against Clostridium difficile assessed as microbial growth inhibition incubated for 18 hrs", "type": "functional"}, "[12]": {"tested_on": "Pseudomonas aeruginosa", "test": "Antimicrobial activity against Pseudomonas aeruginosa ATCC 27853 assessed as microbial growth inhibition incubated for 18 hrs", "type": "functional"}, "[13]": {"tested_on": "Clostridioides difficile", "test": "Anti-sporulation activity against Clostridium difficile M7404 infected in C57BL/6J mouse model assessed as reduction in spore shedding in faeces at 50 ug/ml pre-infected for 6 hrs followed by compound treatment measured for 2 to 4 days post-infection", "type": "functional, organism-based", "settings": "dose 50.0 µg/ml, time 42-90 hrs"}}, "note": "Calls of active or inactive are those of the source. The rule behind the calls is not given here.", "data": [{"compound": "CO[C@@]1(NC(=O)C2SC(=C(C(N)=O)C(=O)O)S2)C(=O)N2C(C(=O)O)=C(CSc3nnnn3C)CS[C@@H]21", "note": "(stereo not given in full) [CEFOTETAN]", "values": [{"measurement": "MIC50", "setting": "[1]", "value": "> 32", "unit": "µg/mL"}, {"measurement": "MIC50", "setting": "[2]", "value": "> 32", "unit": "µg/mL"}, {"measurement": "MIC50", "setting": "[3]", "value": "> 32", "unit": "µg/mL"}, {"measurement": "HC10", "setting": "[4]", "value": "> 32", "unit": "µg/mL"}, {"measurement": "IC50", "setting": "[5]", "value": 15, "unit": "nM"}, {"measurement": "MIC50", "setting": "[6]", "value": "> 32", "unit": "µg/mL"}, {"measurement": "MIC50", "setting": "[7]", "value": 4, "unit": "µg/mL"}, {"measurement": "MIC50", "setting": "[8]", "value": "> 32", "unit": "µg/mL"}, {"measurement": "fold change (FC)", "setting": "[9]", "value": 10000}, {"measurement": "CC50 at 20 h", "setting": "[10]", "value": "> 32", "unit": "µg/mL"}, {"measurement": "MIC50", "setting": "[11]", "value": 20, "unit": "µg/mL"}, {"measurement": "MIC50", "setting": "[12]", "value": "> 32", "unit": "µg/mL"}]}, {"compound": "CO[C@@]1(NC(=O)Cn2cc(-c3cccc4ccccc34)nn2)C(=O)N2C(C(=O)O)=C(CSc3nnnn3C)CS[C@@H]21", "values": [{"measurement": "MIC50", "setting": "[1]", "value": 8, "unit": "µg/mL"}, {"measurement": "MIC50", "setting": "[2]", "value": "> 32", "unit": "µg/mL"}, {"measurement": "MIC50", "setting": "[3]", "value": "> 32", "unit": "µg/mL"}, {"measurement": "HC10", "setting": "[4]", "value": "> 32", "unit": "µg/mL"}, {"measurement": "IC50", "setting": "[5]", "value": 86, "unit": "nM"}, {"measurement": "MIC50", "setting": "[6]", "value": "> 32", "unit": "µg/mL"}, {"measurement": "MIC50", "setting": "[7]", "value": 32, "unit": "µg/mL"}, {"measurement": "MIC50", "setting": "[8]", "value": "> 32", "unit": "µg/mL"}, {"measurement": "fold change (FC)", "setting": "[9]", "value": ">100000"}, {"measurement": "CC50 at 20 h", "setting": "[10]", "value": "> 32", "unit": "µg/mL"}, {"measurement": "MIC50", "setting": "[11]", "value": 40, "unit": "µg/mL"}, {"measurement": "MIC50", "setting": "[12]", "value": "> 32", "unit": "µg/mL"}]}, {"compound": "CO[C@@]1(NC(=O)Cn2cc(-c3ccc4ccccc4c3)nn2)C(=O)N2C(C(=O)O)=C(CSc3nnnn3C)CS[C@@H]21", "values": [{"measurement": "MIC50", "setting": "[1]", "value": 32, "unit": "µg/mL"}, {"measurement": "MIC50", "setting": "[2]", "value": "> 32", "unit": "µg/mL"}, {"measurement": "MIC50", "setting": "[3]", "value": "> 32", "unit": "µg/mL"}, {"measurement": "HC10", "setting": "[4]", "value": "> 32", "unit": "µg/mL"}, {"measurement": "IC50", "setting": "[5]", "value": 54, "unit": "nM"}, {"measurement": "MIC50", "setting": "[6]", "value": "> 32", "unit": "µg/mL"}, {"measurement": "MIC50", "setting": "[7]", "value": "> 32", "unit": "µg/mL"}, {"measurement": "MIC50", "setting": "[8]", "value": "> 32", "unit": "µg/mL"}, {"measurement": "fold change (FC)", "setting": "[9]", "value": ">100000"}, {"measurement": "CC50 at 20 h", "setting": "[10]", "value": "> 32", "unit": "µg/mL"}, {"measurement": "MIC50", "setting": "[11]", "value": 20, "unit": "µg/mL"}, {"measurement": "MIC50", "setting": "[12]", "value": "> 32", "unit": "µg/mL"}]}, {"compound": "CO[C@@]1(NC(=O)Cn2cc(-c3ccccc3)nn2)C(=O)N2C(C(=O)O)=C(CSc3nnnn3C)CS[C@@H]21", "values": [{"measurement": "MIC50", "setting": "[1]", "value": 32, "unit": "µg/mL"}, {"measurement": "MIC50", "setting": "[2]", "value": "> 32", "unit": "µg/mL"}, {"measurement": "Activity", "setting": "[13]", "value": "Active"}, {"measurement": "MIC50", "setting": "[3]", "value": 32, "unit": "µg/mL"}, {"measurement": "HC10", "setting": "[4]", "value": "> 32", "unit": "µg/mL"}, {"measurement": "IC50", "setting": "[5]", "value": 89, "unit": "nM"}, {"measurement": "MIC50", "setting": "[6]", "value": "> 32", "unit": "µg/mL"}, {"measurement": "MIC50", "setting": "[7]", "value": 32, "unit": "µg/mL"}, {"measurement": "MIC50", "setting": "[8]", "value": "> 32", "unit": "µg/mL"}, {"measurement": "fold change (FC)", "setting": "[9]", "value": ">100000"}, {"measurement": "CC50 at 20 h", "setting": "[10]", "value": "> 32", "unit": "µg/mL"}, {"measurement": "MIC50", "setting": "[11]", "value": 5, "unit": "µg/mL"}, {"measurement": "MIC50", "setting": "[12]", "value": "> 32", "unit": "µg/mL"}]}, {"compound": "CO[C@@]1(NC(=O)Cn2cc(-c3cccc(C(=O)O)c3)nn2)C(=O)N2C(C(=O)O)=C(CSc3nnnn3C)CS[C@@H]21", "values": [{"measurement": "MIC50", "setting": "[1]", "value": 32, "unit": "µg/mL"}, {"measurement": "MIC50", "setting": "[2]", "value": "> 32", "unit": "µg/mL"}, {"measurement": "MIC50", "setting": "[3]", "value": 32, "unit": "µg/mL"}, {"measurement": "HC10", "setting": "[4]", "value": "> 32", "unit": "µg/mL"}, {"measurement": "IC50", "setting": "[5]", "value": 69, "unit": "nM"}, {"measurement": "MIC50", "setting": "[6]", "value": "> 32", "unit": "µg/mL"}, {"measurement": "MIC50", "setting": "[7]", "value": 8, "unit": "µg/mL"}, {"measurement": "MIC50", "setting": "[8]", "value": "> 32", "unit": "µg/mL"}, {"measurement": "fold change (FC)", "setting": "[9]", "value": 1000}, {"measurement": "CC50 at 20 h", "setting": "[10]", "value": "> 32", "unit": "µg/mL"}, {"measurement": "MIC50", "setting": "[11]", "value": 5, "unit": "µg/mL"}, {"measurement": "MIC50", "setting": "[12]", "value": "> 32", "unit": "µg/mL"}]}, {"compound": "CO[C@@]1(NC(=O)Cn2cc(-c3cccc4cccnc34)nn2)C(=O)N2C(C(=O)O)=C(CSc3nnnn3C)CS[C@@H]21", "values": [{"measurement": "MIC50", "setting": "[1]", "value": 32, "unit": "µg/mL"}, {"measurement": "MIC50", "setting": "[2]", "value": "> 32", "unit": "µg/mL"}, {"measurement": "MIC50", "setting": "[3]", "value": "> 32", "unit": "µg/mL"}, {"measurement": "HC10", "setting": "[4]", "value": "> 32", "unit": "µg/mL"}, {"measurement": "IC50", "setting": "[5]", "value": 472, "unit": "nM"}, {"measurement": "MIC50", "setting": "[6]", "value": "> 32", "unit": "µg/mL"}, {"measurement": "MIC50", "setting": "[7]", "value": "> 32", "unit": "µg/mL"}, {"measurement": "MIC50", "setting": "[8]", "value": "> 32", "unit": "µg/mL"}, {"measurement": "fold change (FC)", "setting": "[9]", "value": 100}, {"measurement": "CC50 at 20 h", "setting": "[10]", "value": "> 32", "unit": "µg/mL"}, {"measurement": "MIC50", "setting": "[11]", "value": "> 40", "unit": "µg/mL"}, {"measurement": "MIC50", "setting": "[12]", "value": "> 32", "unit": "µg/mL"}]}, {"compound": "CO[C@@]1(NC(=O)Cn2cc(CO)nn2)C(=O)N2C(C(=O)O)=C(CSc3nnnn3C)CS[C@@H]21", "values": [{"measurement": "MIC50", "setting": "[1]", "value": 32, "unit": "µg/mL"}, {"measurement": "MIC50", "setting": "[2]", "value": "> 32", "unit": "µg/mL"}, {"measurement": "MIC50", "setting": "[3]", "value": 16, "unit": "µg/mL"}, {"measurement": "HC10", "setting": "[4]", "value": "> 32", "unit": "µg/mL"}, {"measurement": "IC50", "setting": "[5]", "value": 369, "unit": "nM"}, {"measurement": "MIC50", "setting": "[6]", "value": "> 32", "unit": "µg/mL"}, {"measurement": "MIC50", "setting": "[7]", "value": 16, "unit": "µg/mL"}, {"measurement": "MIC50", "setting": "[8]", "value": "> 32", "unit": "µg/mL"}, {"measurement": "fold change (FC)", "setting": "[9]", "value": 10}, {"measurement": "CC50 at 20 h", "setting": "[10]", "value": "> 32", "unit": "µg/mL"}, {"measurement": "MIC50", "setting": "[11]", "value": 10, "unit": "µg/mL"}, {"measurement": "MIC50", "setting": "[12]", "value": "> 32", "unit": "µg/mL"}]}]}
